Data on ten compounds can be found in US20260209152A1, “Substituted Hydroxystilbene Compounds and Derivatives, Synthesis and Uses Thereof” (Kynan Duke IP, LLC, priority 2019, published 2026).

Like-named read-outs stand apart in the source and are kept apart here.

Data set [1] relates to IL-17A secretion from human PBMC stimulated with antiCD3/antiCD28-coated beads. The conditions noted are these: assay description, cited from earlier work.
Data set [2] relates to Cancer cells including pancreatic, bladder, kidney, colon, breast, lung, liver and osteosarcomas. The data set can be described thus: CellTiter Glo cell viability assay, panel of cancer cell lines. In kind it is cell-based, human. To be noted: SAR discussion based on IC50 values in Tables 1 to 5; compared with 1 [KYN-001]. The method, then:
Compounds 1 to 15 were evaluated and their effect on cancer growth examined in cell viability assays on multiple cancer types (Tables 1 to 5). Cancer cells including pancreatic, bladder, kidney, colon, breast, lung, liver and osteosarcomas obtained from ATCC (American Type Culture Collection) were authenticated before use by Short Tandem Repeat genomic analysis (Reid Y, Storts D, Riss T and Minor L. Authentication of Human Cell Lines by STR DNA Profiling Analysis. 2013 May 1. In: Markossian S, Sittampalam G S, Grossman A, et al., editors. Assay Guidance Manual. Bethesda (MD): Eli Lilly & Company and the National Center for Advancing Translational Sciences; 2004.). Experimental protocol for each cancer cell line was verified and optimized according to literature reports before use (Tables 1 to 3).
(§1) 1.7*10^3 cells/well were seeded in quadruplicates in 96-well plate after plating. Drugs were added at 5 μM and 2-fold dilutions over 18 concentrations (0.000038146-5 […] range) to generate a dose-response curve. Cell growth was assessed on day 1, 3 and 5 after drug treatments using the CellTiter Glo Luminescence Cell Viability Assay (Promega) according to manufacturer's protocol. Thermo Scientific Varioskan LUX Multimode Microplate instrument was used for plate reading. Data are expressed as mean luminescence (arbitrary units) ±S.D.
(§2) Cell Viability Assays were employed to determine the concentration of Compound 1 (KYN-001) and analogues where the response is reduced by half. For each treatment of cancer cells, 1, 2, 5, 10 and 20 μM solutions of compounds were applied. GraphPad Prism 7 software was used to fit dose response curves. Relative Luminescence Units were plotted against the log values of the doses used and the nonlinear regression model was used for data analysis.
(§3) The protocol for cell proliferation was optimized for Compound 8 (KYN-119) to enable a more accurate assessment of its low IC50 value. In this protocol, 18 dosages (2 fold dilutions ranging from 0.000038146 to 5 μM) were applied to cells seeded in 96-well plates, and Luminescence was measured after 1, 3 and 5 days upon treatments.

A further data set relates to Brain U-87 MG HTB-14. The data set can be described thus: CellTiter Glo cell viability assay. In kind it is cell-based. The conditions noted are these: Homo sapiens, Table 5B: 11 dilutions 3-0.00001 μM, Exp L-N. The method, then:
(§4) 1.7*10^3 cells/well were seeded in quadruplicates in 96-well plate after plating. […] Cell growth was assessed on day 1, 3 and 5 after drug treatments using the CellTiter Glo Luminescence Cell Viability Assay (Promega) according to manufacturer's protocol. Thermo Scientific Varioskan LUX Multimode Microplate instrument was used for plate reading. Data are expressed as mean luminescence (arbitrary units) ±S.D.
(§5) Cell Viability Assays were employed to determine the concentration of Compound 1 (KYN-001) and analogues where the response is reduced by half. […] GraphPad Prism 7 software was used to fit dose response curves. Relative Luminescence Units were plotted against the log values of the doses used and the nonlinear regression model was used for data analysis.
(In ATP-based viability assays light output follows the ATP content of the culture.)

A further data set relates to Kidney CRL-1611. The data set can be described thus: CellTiter Glo cell viability assay. In kind it is cell-based. To be noted: Homo sapiens, 72 h; Day 3 upon drug treatment; 10 dosages 0.0001-20 μM; read-out: IC50. The method, then:
as §1, §2, §3

The subject of the next data set is Pancreatic MIA PaCa-2. In words: CellTiter Glo cell viability assay. Format: cell-based, human. The conditions noted are these: Homo sapiens, read-out: IC50. The procedure: as §1, §2, §3
Day 3 upon treatment of MIA PaCa_2 pancreatic cancer cells, 24 h after plating (11 dilutions), as assessed by CellTiter Glow Assay.

The test system of a further data set is Breast MDA-MB-231. The data set can be described thus: CellTiter Glo cell viability assay. In kind it is cell-based, human. To be noted: Homo sapiens, MDA-MB-231, 72 h; Day 3 upon drug treatment; 10 dosages 0.0001-20 μM; read-out: IC50. The method, then: as §1, §2, §3
The test system of the next data set is Bladder RT-112. The data set can be described thus: CellTiter Glo cell viability assay. In kind it is cell-based, human. The conditions noted are these: Homo sapiens, RT-112, 72 h, read-out: IC50. The method, then:
as §1, §2, §3

The subject of another data set is Colon SW_480. In words: CellTiter Glo cell viability assay. The conditions noted are these: Homo sapiens, SW480, 72 h; Day 3 upon drug treatment; 10 dosages 0.0001-20 μM; read-out: IC50. Format: cell-based, human.
A further data set relates to Kidney A-498. In words: CellTiter Glo cell viability assay. Format: cell-based, human. The conditions noted are these: read-out: IC50. The procedure:
as §4, §5
The protocol for cell proliferation was optimized for Compound 8 (KYN-119) to enable a more accurate assessment of its low IC50 value. […]

The subject of the next data set is Kidney ACHN. The data set can be described thus: CellTiter Glo cell viability assay. In kind it is cell-based, human. To be noted: Homo sapiens, ACHN, 72 h; Table 4: 3 Days of treatment; 18 2-fold dilutions 5-0.00003 μM; Average (1, 8) or single Exp A-D; read-out: IC50. The procedure:
as §1, §2, §3

The next data set concerns Pancreatic CAPAN-1. The data set can be described thus: CellTiter Glo cell viability assay. Format: cell-based, human. To be noted: Homo sapiens, CAPAN-1, 72 h; Table 4: 3 Days of treatment; 18 2-fold dilutions 5-0.00003 μM; Average (1, 8) or single Exp A-D; read-out: IC50. The method, then: as §1, §2, §3
The next data set relates to GBM patient sample BNB04. The data set can be described thus: Ex vivo GBM 3D spheroid drug response (CellTiter-Glo 3D). The conditions noted are these: 3D spheroids. Also noted: key to TMZ Response: NR: Non-responder; MR: Moderate responder; Responder. Format: cell-based, human. The text has this:
(§6) This project involves an ex vivo drug response screen for 3 ROKiT Pharma test agents and Temozolomide in 3 previously dissociated and cryopreserved GBM samples.
(§7) • 2.1 Three previously processed GBM patient samples were chosen to be used in this study.

Another data set relates to GBM patient sample BNA99. Described as above. Format: cell-based, human. Also noted: key to TMZ Response: NR: Non-responder; MR: Moderate responder; Responder. The conditions noted are these: 3D spheroids.
Source text: as §6, §7

A further data set relates to GBM patient sample BNB18. The data set is described as above. In kind it is cell-based, human. Also noted: key to TMZ Response: NR: Non-responder; MR: Moderate responder; Responder. To be noted: 3D spheroids.
Source text: as §6, §7

Data set [3] is described as follows: Stability in solution (LCMS observation). In kind it is physicochemical. To be noted: standing in methanol for 16 hours; acetonitrile in water chromatography. The method, then:
NOTE: In a trial run, compound 15-9 (50 mg) was converted to compound 15 using conditions as described above.

Setting [4] is: MIA PaCa-2, 72 h, Day 3 upon drug treatment, 10 dosages 0.0001-20 μM.
Setting [5] is: Day 3 upon drug treatment, 10 dosages 0.0001-20 μM.
The mark [6] stands for this setting: Homo sapiens, A498, Table 5A: 11 dilutions 3-0.00001 μM, single experiments Exp E-K.
Where [7] appears, read: MIA PaCa-2, Table 5B: MIA PaCa-2 CRL-1420, 11 dilutions 3-0.00001 μM, Exp L-N.

As a reminder, the EC50 is the concentration at which the effect is half-maximal. As to `C=CC[C@@H]1/C=C(\C)C[C@H](C)C[C@H](OC)[C@H]2O[C@@](O)(C(=O)C(=O)N3CCCC[C@H]3C(=O)O[C@H](/C(C)=C/[C@@H]3CC[C@@H](O)[C@H](OC)C3)[C@H](C)[C@@H](O)CC1=O)[C@H](C)C[C@@H]2OC` [Tacrolimus], the “Emax (plateau of the fitted curve), IL-17A release (reference compound)” value in [1] is “approximately 90%”. In addition, in data set [1] (read-out: EC50, IL-17A release (reference compound)), the EC50 is around 0.34 nM.
A word on the IC50: it is the point on the concentration scale where inhibition reaches its midpoint. Take `CCOc1cc(O)cc(/C=C/c2ccc3[nH]c(=O)n(C)c3c2)c1CC=C(C)C` [Compound 51, (E)-6-(3-Ethoxy-5-hydroxy-2-(3-methylbut-2-en-1-yl)styryl)-1-methyl-1,3-dihydro-2H-benzo[d]imidazol-2-one]: in data set [2], the “Cancer cell viability inhibition, statement in words” value (shortened to “Cancer cell viability inhibition”) is “no significant activity”. In addition, in the data set with Brain U-87 MG HTB-14, the IC50 is around 3000 nM.
Turning to `COc1cc(O)cc(/C=C/c2ccc(O)c(SC)c2)c1CC=C(C)C` [Compound 14, (E)-3-(4-Hydroxy-3-(methylthio)styryl)-5-methoxy-4-(3-methylbut-2-en-1-yl)phenol], the IC50 was 2960 nM with Kidney CRL-1611, 3470 nM with Pancreatic MIA PaCa-2 (setting [4]), around 10600 nM in the data set on Breast MDA-MB-231 and 1330 nM in the data set with Bladder RT-112 (setting [5]).
Consider `CCc1cc(/C=C/c2cc(O)cc(OC)c2CC=C(C)C)ccc1O` [Compound 13, (E)-3-(3-Ethyl-4-hydroxystyryl)-5-methoxy-4-(3-methylbut-2-en-1-yl)phenol], for which the IC50 worked out at 2120 nM with Kidney CRL-1611, 26500 nM with Colon SW_480, 3000 nM in the data set on Pancreatic MIA PaCa-2 (setting [4]) and 949 nM in the data set on Bladder RT-112 (setting [5]).
On to `COc1cc(C=Cc2cc(O)cc(OC(C)C)c2CC=C(C)C)ccc1O` [Compound 10, 3-(4-Hydroxy-3-methoxystyryl)-5-isopropoxy-4-(3-methylbut-2-en-1-yl)phenol], for which the IC50 in the data set on Kidney A-498 (Homo sapiens, A498, 72 h, Table 4: 3 Days of treatment, 18 2-fold dilutions 5-0.00003 μM, Average (1, 8) or single Exp A-D) was 37.1 nM; in the data set on Kidney A-498 (setting [6]), 100 to 1000 nM; in the data set on Kidney A-498 (Table 5A: 11 dilutions 3-0.00001 μM, single experiments Exp E-K) it was 126 nM; in the data set on Kidney ACHN it was 40.9 nM; in the data set on Pancreatic CAPAN-1 it was 2240 nM; in the data set with Bladder RT-112 (Table 4: 3 Days of treatment, 18 2-fold dilutions 5-0.00003 μM, Average (1, 8) or single Exp A-D), 25.6 nM.
As to `COc1cc(/C=C/c2cc(O)cc(NC(C)=O)c2CC=C(C)C)ccc1O` [Compound 49, (E)-N-(5-hydroxy-3-(4-hydroxy-3-methoxystyryl)-2-(3-methylbut-2-en-1-yl)phenyl)acetamide], in data set [2], the “Cancer cell viability inhibition” value is listed as “anticancer activities comparable to 1”. Also, the concentration for half-maximal inhibition (IC50) with Pancreatic MIA PaCa-2 (setting [7]) was 531 nM; with Brain U-87 MG HTB-14, 1400 nM.
In the case of `COc1cc(/C=C/c2cc(O)cc(NC=O)c2CC=C(C)C)ccc1O` [Compound 48, (E)-N-(5-Hydroxy-3-(4-hydroxy-3-methoxystyryl)-2-(3-methylbut-2-en-1-yl)phenyl)formamide], in data set [2], the “Cancer cell viability inhibition” value is given as “anticancer activities comparable to 1”. For the same compound, the IC50 in the data set on Pancreatic MIA PaCa-2 (setting [7]) was 486 nM; in the data set with Brain U-87 MG HTB-14, 555 nM.
Turning to `Cn1nnc2c(C(N)=O)ncn2c1=O` [TMZ, Temozolomide, reference compound], the figures for the “TMZ Response” value in the data set on GBM patient sample BNB04, with GBM patient sample BNA99 and in the data set with GBM patient sample BNB18 were “MR”, “NR” and “R”, respectively.
As to `CCOc1cc(O)cc(/C=C/c2ccc(N(O)C(C)=O)c(OC)c2)c1CC=C(C)C` [Compound 39, (E)-N-(4-(3-ethoxy-5-hydroxy-2-(3-methylbut-2-en-1-yl)styryl)-2-methoxyphenyl)-N-hydroxyacetamide], the “Cancer cell viability inhibition” value in data set [2] is reported as “almost complete loss of anticancer activity”. Moreover, the IC50 is above 3000 nM in the data set on Pancreatic MIA PaCa-2 (setting [7]) and around 3000 nM in the data set with Brain U-87 MG HTB-14.
For the compound `CNc1cc(/C=C/c2cc(O)cc(OC)c2CC=C(C)C)ccc1O` [Compound 15, (E)-3-(4-Hydroxy-3-(methylamino)styryl)-5-methoxy-4-(3-methylbut-2-en-1-yl)phenol], the IC50 in the data set on Kidney A-498 (setting [6]) is above 3000 nM; with Pancreatic MIA PaCa-2 (MIA PaCa-2, Table 5A: 11 dilutions 3-0.00001 μM, single experiments Exp E-K), above 3000 nM. Moreover, in [2], the “Cancer cell viability inhibition” value is “inactive or weakly active”. For the same compound, the Stability in solution result in data set [3] is “might be unstable in solution”.
